Test results as given in patent US8148328B2, “Salicylanilides enhance oral delivery of therapeutic peptides” (The Regents of the University of California, priority 2006, dated 2012).
Where a name gives a salt, the structure may show the parent alone. Read-outs that look alike come from different tables or passages of the source. Residues, ends and D or L forms follow the SMILES beside them. No end group written: not given here.

Legend:
[1] = cited from earlier work; for solubility in water: 20° C., ethanolamine salt in distilled water
[2] = test system: monocyte chemotactic activity in cultures of human aortic endothelial cells; experiment: LDL-inflammatory index of LDL from treated apoE null mice; format: in vivo; conditions: FIG. 25: co-administered with D-4F or L-4F, mice of FIG. 24
[3] = test system: LDL-induced monocyte chemotactic activity in cultures of human aortic endothelial cells; experiment: HDL-inflammatory index of HDL from treated apoE null mice; format: in vivo; conditions: for HDL-inflammatory index, potency relative to niclosamide: FIG. 24: salicylanilide 10:1 with 5 μg D-4F or L-4F by stomach tube, 6 hours
Text: 11-month-old female apoE null mice were fasted during the day. At night the mice were provided chow containing or not containing additions. In the first experiment the mice were given chow alone (C) or chow supplemented with 8.0 micrograms of Niclosamide (2′,5-Dichloro-4′-nitrosalicylanilide; Niclosamide, Sigma catalog number N-3510 Page 1711 2006-2007 catalog Empirical Formula (Hill Notation): C13H8C12N2O4 Formula Weight: 327.12, CAS Number: 50-65-7 Batch 105K0666 EC 200-056-8) per gram of chow (D) or chow supplemented with 2.0 micrograms of L-4F (free base) per gram of chow (E), or chow supplemented with 8.0 micrograms of Niclosamide together with 2.0 micrograms of L-4F (free base) per gram of chow (F). The mice were only given one gram of chow per mouse (n=8 mice per group) so that they would consume all of the chow. In the morning after the chow was consumed the mice were bled and their plasma was sucrose cryopreserved and fractionated by FPLC and the HDL-containing fractions were tested for their ability to inhibit monocyte chemotactic activity induced by a standard control human LDL (A) in cultures of human aortic endothelial cells. The mouse HDL (C-J) was also compared to a standard human HDL (B) that was added at the same concentrations as the mouse HDL. The resulting monocyte chemotactic activity was normalized to the standard control LDL added alone (A). The results are plotted as the HDL-inflammatory index, which is the result of dividing the monocyte chemotactic activity measured for each condition by the monocyte chemotactic activity obtained by the standard control LDL added alone, which was normalized to 1.0 as described previously (Navab et al. (2004) J Lipid Res, 45: 993-1007).
A second experiment was performed as described for the first experiment with 8 mice in each group except that the additions to the chow were different. Chow alone in the second experiment (G) was compared to chow supplemented with 100 micrograms of Niclosamide per gram of chow (H), or supplemented with 10 micrograms of L-4F (free base) per gram of mouse chow (I), or supplemented with 10 micrograms of L-4F (free base) together with 100 micrograms of Niclosamide per gram of chow (J). As in the first experiment the mice were only given one gram of chow per mouse so that they would consume all of the chow. In the morning this second group of mice were bled and their HDL tested in the human artery wall cell culture together with the HDL from the first experiment.
Ten mg of Niclosamide was placed in a glass-glass homogenizer with mortar and round bottom pestle (Kontes Dounce Tissue grinder, K885300-0015 available from Fisher, VWR) and 200 μL of ethanol was added. The Niclosamide ethanol mixture was homogenized using 2-3 strokes and distilled water was added and the mixture further homogenized using 5-10 strokes and the volume was adjusted to 10 mL with distilled water. Serial dilutions of this mixture were made using distilled water to give the micrograms of Niclosamide shown on the x-axis, which were contained in 100 μL. L-4F (free base) was diluted with water to give 10 μg per 100 μL of water. One hundred microliters of the Niclosamide solution was given by stomach tube to each mouse in each group of twelve-month-old non-fasting female apoE null mice (n=4 per group) and immediately followed by 100 μL containing 10 μg of L-4F (free base) in water. The mice were fasted and after 7 hours they were bled and their plasma was sucrose cryopreserved. The plasma was fractionated by FPLC and the HDL-containing fractions were tested for their ability to inhibit the induction of monocyte chemotactic activity by a standard control human LDL, which was added to cultures of human aortic endothelial cells. The standard control human LDL was also added by itself or with a standard control human HDL. The values obtained by the standard control human LDL alone were normalized to 1.0. […]

[4] = test system: aortic sinus lesion area; experiment: Lesion regression in old apoE null mice, six months in chow; format: in vivo; conditions: FIGS. 32-34: niclosamide 2 mg and/or L-4F 200 μg/mouse/day in chow, pravastatin 50 μg/mouse/day, 26 weeks
Text: Ninety-five female apoE null mice age 9.5 months from the UCLA breeding colony were identified. Twenty-three were sacrificed at time Zero (Group I) to establish lesion area at the start of the experiment. The remainder of the mice were divided into three groups of 24 mice each and the following additions were made to the chow for each group: Group II: Niclosamide at 2,000 micrograms/mouse/day; Group III: L-4F at 200 micrograms/mouse/day; Group IV: L-4F at 200 micrograms/mouse/day plus Niclosamide at 2,000 micrograms/mouse/day. All groups received 50 micrograms/mouse/day of pravastatin in their drinking water. At the veterinarian's request because of fighting and/or ulcerative dermatitis mice were euthanized prior to the end of the experiment as follows: 6 mice from Group II; 5 mice from Group III; 4 mice from Group IV. After six months the remaining mice were sacrificed and aortic sinus lesion area was determined as described previously (Id.).
In still another experiments, nine and half months-old female apoE null mice were divided into four groups: Group I was sacrificed to establish base line lesion area (Time Zero). Group II received niclosamide at 2 mg/mouse/day in rodent chow. Group III received L-4F at 200 μg/mouse/day in rodent chow. […] After 26 weeks the mice were sacrificed and aortic sinus lesion area was determined.

[5] = mouse, in vivo
[6] = test system: LDL-induced monocyte chemotactic activity in cultures of human aortic endothelial cells; conditions: mice, oral, without niclosamide; human artery wall cells (Navab 2002); cited from earlier work
[7] = mouse, in vivo; cited from earlier work
[8] = test system: inflammatory response induced by the action of HPODE oxidizing PAPC in cocultures of human artery wall cells; conditions: apoE null mice, drinking water 24 hours; D-4F 1 μg/ml, atorvastatin or pravastatin 0.05 mg/ml; cited from earlier work
[9] = Solubilization of niclosamide in water with or without L-4F; format: physicochemical; conditions: even when added in ethanol and homogenized
Procedure: Niclosamide at 10 mg per mL was added to water, or to water containing 1.0 mg/mL L-4F (free base) and was homogenized in a glass-glass homogenizer. The solutions were stored at 4° C. for ten days and photographed
Niclosamide at 10 mg per mL was added to water, or to water containing 1.0 mg/mL L-4F (free base) and was homogenized in a glass-glass homogenizer.

[10] = Fate of peptides after an oral dose (degradation, association with HDL, clearance from the circulation)
[11] = mouse, in vivo; remark: listed apart in the source
Procedure: (§1) Fasted apoE null mice 6-months of age (n=4 per group) were administered by stomach tube ^14C-L-4F (21,000 dpm containing 10 micrograms of L-4F per mouse) with or without 100 micrograms of niclosamide in 200 microliters. Fasting was continued and the mice were bled at the time points shown on the X-axis and the dpm per mL plasma determined.
(§2) Fasted female apoE null mice 6-months of age (n=4 per group) were administered by stomach tube L-4F (21,000 dpm containing 10 micrograms of L-4F per mouse) with or without 100 micrograms of niclosamide in 200 μL 0.1% Tween20 in ammonium bicarbonate at pH 7.0. Fasting was continued and the mice were bled at the time points shown on the X-axis in FIG. 27 and the dpm per mL plasma determined.

[12] = mouse, in vivo, 100 ug
Procedure: as §1, §2

[13] = FIG. 8: female apoE null mice, overnight in chow, niclosamide 8 or 100 μg and/or L-4F 2 or 10 μg per gram of chow
[14] = FIG. 22: 10 μg peptide with or without niclosamide 10:1, pH 8.0, stomach tube, 7 hours

For O=C(Nc1ccc([N+](=O)[O-])cc1Cl)c1cc(Cl)ccc1O [ethanolamine salt, 5-chloro-salicyl-(2-chloro-4-nitro) anilide 2-aminoethanol salt], the solubility in water [1] is given as 180 to 280 µg/mL.
For O=C(Nc1ccc([N+](=O)[O-])cc1Cl)c1ccc(Cl)cc1O [BP-1001], the “LDL-inflammatory index, potency relative to niclosamide” value [2] was “more potent” and the “HDL-inflammatory index, potency relative to niclosamide” value [3] was “more potent than niclosamide”.
For CC(=O)N[C@@H](CC(=O)O)C(=O)N[C@@H](Cc1c[nH]c2ccccc12)C(=O)N[C@@H](Cc1ccccc1)C(=O)N[C@@H](CCCCN)C(=O)N[C@@H](C)C(=O)N[C@@H](Cc1ccccc1)C(=O)N[C@@H](Cc1ccc(O)cc1)C(=O)N[C@@H](CC(=O)O)C(=O)N[C@@H](CCCCN)C(=O)N[C@H](C(=O)N[C@@H](C)C(=O)N[C@@H](CCC(=O)O)C(=O)N[C@@H](CCCCN)C(=O)N[C@@H](Cc1ccccc1)C(=O)N[C@@H](CCCCN)C(=O)N[C@@H](CCC(=O)O)C(=O)N[C@@H](C)C(=O)N[C@@H](Cc1ccccc1)C(N)=O)C(C)C [L-4F, Ac-D-W-F-K-A-F-Y-D-K-V-A-E-K-F-K-E-A-F-NH2] (Ac-DWFKAFYDKVAEKFKEAF-NH2), the “lesions in old apoE null mice versus time zero” value [4] was “neither niclosamide nor L-4F without niclosamide significantly reduced lesions”, the “time after an oral dose at which essentially non-detectable in the circulation” value [5] was 6 h and the “association with pre-beta HDL and HDL” value ([5]; po) was “rapidly associates with pre-beta HDL and HDL”. The “protective capacity of HDL to inhibit LDL-induced monocyte chemotactic activity” value [6] was “did not significantly alter”, the HDL-inflammatory index [3, 13] was “slightly but significantly improved” and the HDL-inflammatory index [3, 14] was “only able to achieve this degree of efficacy when co-administered with niclosamide”. For the same compound, the “degradation after oral administration” value [7] was “rapidly degraded”.
In the case of CC(C)c1c(C(=O)Nc2ccccc2)c(-c2ccccc2)c(-c2ccc(F)cc2)n1CC[C@@H](O)C[C@@H](O)CC(=O)O [atorvastatin, reference compound], the HDL function [8] is listed as “did not improve HDL function”.
In the case of O=C(Nc1ccc([N+](=O)[O-])cc1Cl)c1cc(Cl)ccc1O [Niclosamide, 2′5-dichloro-4′-nitrosalicylanilide], the “lesions in old apoE null mice versus time zero” value [4] is given as “neither niclosamide nor L-4F without niclosamide significantly reduced lesions”, the solubility in water [1] is given as 5 to 8 µg/mL and the solubility in acetone [1] is given as “soluble in acetone”. The “solubility in ether, ethanol and chloroform” value [1] was “sparingly soluble”, the stability in tablets ([1]; moist environments) was “undergoes a biodegradation” and the HDL-inflammatory index [3, 13] was “ineffective”. The HDL-inflammatory index ([3]; FIG. 24: salicylanilide administered without the peptides) was “neither niclosamide nor the new salicylanilides were anti-inflammatory” and the “solubility in aqueous solutions” value [9] was “relatively insoluble”.
For O=C(Nc1ccc([N+](=O)[O-])cc1Cl)c1ccc(O)c(Cl)c1 [BP-1012], the “LDL-inflammatory index, potency relative to niclosamide” value [2] was “more potent” and the “HDL-inflammatory index, potency relative to niclosamide” value [3] was “more potent than niclosamide”.
For “D-4F: 4F (SEQ ID NO:5) where one or more residues are D form amino acids (DWFKAFYDKVAEKFKEAF; also: one or more residues D-form, places not given here)”, the “association with pre-beta HDL and HDL” value ([10]; after an oral dose) is given as “rapidly associates with pre-beta HDL and HDL”, the “time after an oral dose at which essentially non-detectable in the circulation” value ([10]; oral dose) is given as 6 h and the HDL function [8] is given as “did not significantly improve HDL function”. The HDL-inflammatory index [3, 14] was “able to render apoE null mouse HDL anti-inflammatory to a degree comparable to normal human HDL”.
With CC(=O)N[C@@H](CC(=O)O)C(=O)N[C@@H](Cc1c[nH]c2ccccc12)C(=O)N[C@@H](Cc1ccccc1)C(=O)N[C@@H](CCCCN)C(=O)N[C@@H](C)C(=O)N[C@@H](Cc1ccccc1)C(=O)N[C@@H](Cc1ccc(O)cc1)C(=O)N[C@@H](CC(=O)O)C(=O)N[C@@H](CCCCN)C(=O)N[C@H](C(=O)N[C@@H](C)C(=O)N[C@@H](CCC(=O)O)C(=O)N[C@@H](CCCCN)C(=O)N[C@@H](Cc1ccccc1)C(=O)N[C@@H](CCCCN)C(=O)N[C@@H](CCC(=O)O)C(=O)N[C@@H](C)C(=O)N[C@@H](Cc1ccccc1)C(N)=O)C(C)C [^14C-L-4F] (Ac-DWFKAFYDKVAEKFKEAF-NH2; N-terminus and C-terminus assumed) the “duration of (low) plasma levels” value [11] was “no more than 5 minutes”, the “persistence of plasma level at a lower level” value [11] was “up to four hours” and the “persistence of the Cmax plasma level” value [11] was “persisted for more than an hour”. The Cmax [12] was about 150 ng/mL and the HDL inflammatory index ([3]; FIG. 28: 10 μg 14C-L-4F with 100 μg niclosamide, 5 hours) was “biologically active when given with niclosamide”.
